Measured values as given in patent US10252997B2, “Monocyclic compound” (Takeda Pharmaceutical Company Limited, priority 2015, dated 2019).

Key:
[1] = target: T1, Human ACC1 (Homo sapiens, UniProt Q13085); assay: Measurement of ACC1 inhibitory activity (Malonyl-CoA produced, RapidFire-mass spectrometry); assay type: biochemical; conditions: 10 μM of the test compound; read-out: ACC1 inhibitory rate (%) at 10 μM
T1 construct: His6 (from vector pFAST-BacHTc; purified on Ni-NTA) (N); made in house; host or cells: SF-9 insect cells, recombinant baculovirus BAC-ACC1
Procedure: (1) Cloning of Human ACC1 Gene and Preparation of Recombinant Baculovirus
Human ACC1 gene was cloned by PCR using a human liver cDNA library (Clontech) as a template and Primer 1 and Primer 2 shown below. Primer 1 and Primer 2 were prepared by adding SalI, NotI restriction enzyme recognition sequences based on the information of the base sequence of human ACC1 gene (Genbank Accession U19822).
PCR was performed using Pyrobest DNA polymerase (TAKARA BIO INC.). The obtained PCR product was cloned to pT7 Blue vector (Novagen) and after confirmation of the base sequence, digested with restriction enzymes SalI and […]. The obtained DNA fragment was inserted into pFAST-BacHTc (Invitrogen) digested with restriction enzymes SalI and […] to give expression plasmid ACC1/pFAST-BacHTc.
Using the expression plasmid ACC1/pFAST-BacHTc and BAC-TO-BAC Baculovirus Expression System (Invitrogen), virus stock BAC-ACC1 of recombinant Baculovirus was prepared.
(2) Preparation of ACC1 Protein
SF-9 cells (Invitrogen) were inoculated to a medium (10 L) for insect cells (Sf-900IISFM medium (Invitrogen) containing 5% fetal bovine serum (Trace), 50 mg/L Gentamicin (Wako Pure Chemical Industries, Ltd.) and 0.1% Pluronic F-68 (Invitrogen)) at 1.0×10^6 cells/mL, and cultured with shaking in Wave Bioreactor (GE Healthcare) at 27° C., 20 rpm, rocking angle 100, oxygen concentration 30%.
On day 2 of the culture, recombinant Baculovirus BAC-ACC1 was added, and the cells were cultured for 3 days. The culture medium was centrifuged at 4000×g for 10 min to give virus-infected cells. The cells were washed with phosphate buffered saline (Invitrogen) and centrifuged under the same conditions. The obtained cells were cryopreserved at −80° C.
The cryopreserved cells were thawed in ice, and suspended in 800 mL of 25 mM HEPES buffer (pH 7.5) containing 10% Glycerol, 0.3 M NaCl, 1 mM EDTA, 25 mM Sodium β-Glycerophosphate and 1 mM Sodium Orthovanadate, and supplemented with Complete Protease Inhibitor (Roche). The obtained suspension was homogenized two times in a polytron homogenizer (Kinematica) at 20,000 rpm for 20 sec. The obtained cell disruption solution was clarified by centrifugation at 186,000×g for 60 min, and the supernatant was passed through Ni-NTA Superflow Cartridges (5 mL) (QUIAGEN). Furthermore, it was washed with 25 mM HEPES buffer (pH 7.5) containing 20 mM Imidazole and 0.3 M NaCl, and eluted with 25 mM HEPES buffer (pH 7.5) containing 250 mM Imidazol and 0.3 M NaCl. The eluate was concentrated by Amicon Ultra-15 (Nihon Millipore K.K.) having a fraction molecular weight of 50K. The obtained concentrate was subjected to gel filtration with 50 mM HEPES buffer (pH 7.5) containing 10 mM MgCl2, 2 mM dithiothreitol, 10 mM tripotassium citrate and 0.3 M NaCl by using HiLoad 26/60 Superdex200 prep grade gel filtration column (GE Healthcare) to give ACC1. The obtained ACC1 was cryopreserved at −80° C.
(3) Measurement of ACC1 Inhibitory Activity
ACC1 obtained in the above-mentioned (2) was diluted with an enzyme reaction buffer (50 mM HEPES (pH 7.5), 10 mM MgCl2, 10 mM Tripottasium Citrate, 2 mM Dithiothreitol, 0.001% Fatty acid free BSA) to a concentration of 0.2 μg/ml, and the mixture was added to each well of a 384 well assay plate by 10 μl. A test compound dissolved in dimethyl sulfoxide (DMSO) was diluted with an enzyme reaction buffer, and the resulting solution (5 μl) was added to each well. The mixture was incubated at room temperature for 60 min. Then, a substrate solution (50 mM KHCO3, 200 μM ATP, 200 μM Acetyl-CoA, 5 μl) was added to each well, and the mixture was reacted at room temperature for 30 min. The reaction was quenched by adding a reaction quenching liquid (1.3% formic acid, 0.2 μM Malonyl-^13C3-CoA) by 60 μL each to the obtained reaction mixtures (test compound addition group).
In addition, a reaction was performed in the same manner as above and without adding the test compound (test compound non-addition group). […]

[2] = test system: collagen I gene expression level in liver; assay: Inhibitory effect on liver fibrosis caused by NASH (collagen I gene expression level in liver); assay type: in vivo; conditions: homo low-density lipoprotein receptor deficient mouse, choline-deficient amino acid diet, oral once per day for three weeks
Procedure: The action on liver fibrosis caused by non-alcoholic steatohepatitis (NASH) was verified by the following method.
For efficacy evaluation of action on the above-mentioned fibrosis, 9-week-old, male, homo low-density lipoprotein receptor deficient mouse (Jackson Laboratories (Bar Harbor Me., USA)) was used. Specifically, a choline-deficient amino acid diet (A08111307, Research Diets, New Brunswick, N.J., USA) was fed to the above-mentioned mouse for one week, and a drug was administered for three weeks, and then the collagen I gene expression level in liver after the drug administration was measured.
For the above-mentioned drug administration group, the test compound suspended in 0.5% methylcellulose solution was orally administered by gavage using a stomach gavage needle once per day (n=8). […]
The measurement of the collagen I gene expression level in liver was performed by the following method. […] The total RNA was purified using RNeasy Mini Kit (Qiagen, Valencia, Calif., USA), and cDNA was prepared using High Capacity cDNA Reverse Transcription Kit (PN4368814, Applied Biosystems, Foster City, Calif., USA), and the collagen I gene expression level was measured (collagen type I alpha 1, Part Number 4351370, Applied Biosystems) by the quantitative PCR method (TaqMan Gene Expression Master Mix, PN4369016, Applied Biosystems). […]

## C[C@@H](COc1cnc(-c2ccc(Oc3cccc(OCC4CC4)c3)cc2)o1)NC(N)=O [Example 82, 1-((2S)-1-((2-(4-(3-(cyclopropylmethoxy)phenoxy)phenyl)-1,3-oxazol-5-yl)oxy)propan-2-yl)urea]
[1]
  inhibition at 10 µM: 96%
[2]
  inhibitory effect on liver fibrosis caused by non-alcoholic steatohepatitis (collagen I gene expression level in liver, FIG. 1): superior inhibitory effect on liver fibrosis caused by non-alcoholic steatohepatitis
